Reference: patent publication US9162975B2, “Phenyl carbamate compounds for use in alleviating or treating pain” (Bio-Pharm Solutions Co., Ltd., priority 2011, dated 2015)

Assays:
[1] = system: STZ-induced pain model in rats; experiment: Antiallodynic activity on streptozotocin (STZ)-induced diabetic pain model, von Frey; format: in vivo, Sprague-Dawley rats; conditions: 0.5 hr, paw withdrawal threshold relative to sham
Description: Male, Sprague-Dawley rats (200-220 g, Nara Bio, Korea) were habituated for 1 week before surgery and allowed free access to food and water throughout the experimentation. Room temperature and humidity were maintained at 24±2° C. and 50±10%, respectively.
STZ-induced diabetic pain model was established with a modified method of Rakieten et al. (1963) and Bertrand Aubel et al. (2004). All animals were fasted 4 to 6 hr prior to STZ injection. STZ (sigma, USA) was dissolved in 20 mM sodium citrate buffer, pH 5.5 (sigma, USA) and intraperitoneally injected at 75 mg/kg, 4 ul/g, bw into the rats Sham controls were injected with same volume of 20 mM sodium citrate buffer, pH 5.5 and vehicle controls were identical to STZ model, except for administration of vehicles. Rats were supplied with 10% sucrose water for 2 days against sudden hypoglycemia. 3 days later, the induction of diabetes was checked by measurement of tail vein blood glucose levels with a blood glucose meter. (LifeScan OneTouch Ultra, USA). If blood glucose was not >300 mg/dl by 72 hr, the rat was excluded from the diabetic group.
Tactile sensitivity (Mechanical allodynia) was evaluated using von Frey monofilaments before and after treatment of compound example 1 and animals were used withdrawal threshold value was less than 4 g. […] The tactile sensitivity for ipsilateral hind paw was measured using the up-and-down method (Dixon, 1980) with seven von Frey monofilaments (0.4, 1, 2, 4, 6, 8, and 15 g) to 3 trials. […] The 50% paw withdrawal threshold for each paw was calculated using the following formula: [Xth] log=[vFr] log+ky where [vFr] is the force of the last von Frey used, k=0.2249 which is the average interval (in log units) between the von Frey monofilaments, and y is a value that depends upon the pattern of withdrawal responses (Dixon, 1980).
Antiallodynic effect of compound of Example 1 was evaluated at the dose of 10, 30 and 60 mg/kg (n=6), intraperitoneally administrated in a volume of 5 ul/g, bw in a vehicle of 30% (v/v) PEG. […]

ICR mice [2] = experiment: Writhing test (acetic acid); format: in vivo; conditions: Mus musculus, po, 1 h
Description: To examine the pain relief effect of the phenyl carbamate compounds, a writhing test was conducted in general pain animal model referring to Fischer, L. G. et al. (2008).
(§1) ICR mice (male, 24-28 g; Orient Bio, Korea) were habituated before test in test room for 1 hour Animals were fasted 2 hr, before administration of compounds. Each of Compound 1, 2, 3, 4, 5, 63, 65, and 67 was orally administered at the dose of 20 mg/kg, 10 ul/g, bw (n=3˜5/group). All compounds were dissolved in a vehicle of 30% (v/v) PEG 400 or 20% (v/v) Tween 80. The control group was treated the vehicle without compounds.
One hour after the administration of Compounds, 0.6% acetic acid at the dose of 10 ul/g, bw was injected into the mice. Animals were habituated in the cage for 5 min 5 min after habituation, the number of writhes (abdominal constriction) for 15 min was counted referring to Korzeniewska-Rybicka, I. et al. (1998) and compared with that of a control.

ICR mice [3] = experiment: Hot-plate test; format: in vivo; conditions: withdrawal latency relative to vehicle control, 150 mg/kg po, hot plate 55±1° C.
Description: To examine the pain relief effect of the phenyl carbamate compounds, a hot-plate test was conducted in general pain animal model referring to Current Protocols in Neuroscience; Behavioral Neuroscience Unit 8.9.
as §1, with “(male, 30-35” for “(male, 24-28”, “2 hr” for “2 hr,”, “of 150” for “of 20”, “bw (n=7˜10/group).” for “bw (n=3˜5/group).”
0.5 hr after the administration of compounds, the mice were put on a hot plate pre-heated to 55±1° C. (Hu, X. et al, 2008), and then, measured as the withdrawal latency (cut-off time: 30 sec) time until the point when each mouse was taking off a paw from the plate, shaking, licking a paw or hind leg, or jumping from the plate.

C[C@H](OC(N)=O)[C@@H](O)c1ccccc1Cl [Example 1, 1-(2-chlorophenyl)-(S)-1-hydroxypropyl-(S)-2-carbamate]
% Control (STZ-induced pain model) ([1]; dose 10 mg/kg intraperitoneally): 33.9% | % Control (STZ-induced pain model) ([1]; dose 30 mg/kg intraperitoneally): 49.9% | % Control (STZ-induced pain model) ([1]; dose 60 mg/kg intraperitoneally): 73.7% | ED50 (ICR mice [2]): 14.1 mg/kg | Hot-plate test (150 mg/kg, 0.5 h, po) % Control (ICR mice [3]): 135.7%
